Measured values published in the supplement of paper PMC10307832.

Tests used:
Test in all cases: relative viability (nuclei count vs DMSO), 5 days (fraction); higher = more cells survive
Foretinib = compound: COc1cc2c(Oc3ccc(NC(=O)C4(C(=O)Nc5ccc(F)cc5)CC4)cc3F)ccnc2cc1OCCCN1CCOCC1 [Foretinib] (anchor plate); details: 0.25 µM
Summary of the method: (§1)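 Viability was read as treated-well nuclei divided by vehicle-well nuclei, using the median across plates. Lung cancer cell lines in 1536-well plates were kept overnight at 37 °C, pinned with five √10-spaced library-drug doses, and after 5 days were Hoechst-stained, imaged at 4× and counted in MetaXpress. Plates passed only with control CV below 25% and at least one doubling.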

[1] = compound: O=S(=O)(c1ccccc1)N(CC(F)(F)F)c1ccc(C(O)(C(F)(F)F)C(F)(F)F)cc1
Summary of the method: as §1

RO-3306 + Palbociclib = compound: C1=CC2=C(C=CC(=C2)C=C3C(=O)NC(=NCC4=CC=CS4)S3)N=C1 [RO-3306] + CC(=O)c1c(C)c2cnc(Nc3ccc(N4CCNCC4)cn3)nc2n(C2CCCC2)c1=O [Palbociclib] (partner 0.5 µM)
Summary of the method: (§2)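 Relative viability was taken as the ratio of nuclei in treated wells to nuclei in vehicle wells. Lung cancer cell lines in 1536-well plates received compounds by pin tool one day after seeding, either one drug alone or a fixed anchor-drug dose plus five library-drug doses (not always all listed) in √10 steps. Nuclei were counted on 4× images after 5 days of treatment, and values are medians of duplicate plates.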

RO-3306 + Dasatinib = compound: C1=CC2=C(C=CC(=C2)C=C3C(=O)NC(=NCC4=CC=CS4)S3)N=C1 [RO-3306] + Cc1nc(Nc2ncc(C(=O)Nc3c(C)cccc3Cl)s2)cc(N2CCN(CCO)CC2)n1 [Dasatinib] (partner 0.075 µM)
Summary of the method: as §2

[2] = compound: O=S(=O)(c1ccccc1)N(CC(F)(F)F)c1ccc(C(O)(C(F)(F)F)C(F)(F)F)cc1 + CC1(C)CCC(c2ccc(Cl)cc2)=C(CN2CCN(c3ccc(C(=O)NS(=O)(=O)c4ccc(N[C@H](CCN5CCOCC5)CSc5ccccc5)c(S(=O)(=O)C(F)(F)F)c4)cc3)CC2)C1 [Navitoclax] (partner 0.5 µM)
Summary of the method: as §2

Row | Cell Line | relative viability (Foretinib) | relative viability ([1]; 0.8 µM) | relative viability ([1]; 2.53 µM) | relative viability ([1]; 8 µM) | relative viability (RO-3306 + Palbociclib; first compound 0.01 µM) | relative viability (RO-3306 + Palbociclib; first compound 0.03162 µM) | relative viability (RO-3306 + Palbociclib; first compound 0.1 µM) | relative viability (RO-3306 + Palbociclib; first compound 0.3162 µM) | relative viability (RO-3306 + Palbociclib; first compound 1 µM) | relative viability (RO-3306 + Dasatinib; first compound 0.01 µM) | relative viability (RO-3306 + Dasatinib; first compound 0.03162 µM) | relative viability (RO-3306 + Dasatinib; first compound 0.1 µM) | relative viability (RO-3306 + Dasatinib; first compound 0.3162 µM) | relative viability (RO-3306 + Dasatinib; first compound 1 µM) | relative viability ([2]; first compound 0.8 µM) | relative viability ([2]; first compound 2.53 µM) | relative viability ([2]; first compound 8 µM)
1 | RERF-LC-KJ | 0.865 | 1.02 | 0.87 | 0.84 | 1.27 | 0.993 | 1.16 | 1.1 | 1.08 | 0.919 | 0.667 | 0.907 | 0.881 | 0.915 | 0.863 | 0.802 | 0.87
2 | NCI-H3122 | 0.93 | 0.99 | 0.977 | 1.08 | 0.188 | 0.18 | 0.19 | 0.199 | 0.209 | 0.823 | 0.751 | 0.835 | 0.787 | 0.857 | 1.04 | 0.964 | 1.06
3 | CAL-12T | 1.13 | 0.88 | 0.804 | 0.811 | 0.67 | 0.396 | 0.385 | 0.388 | 0.475 | 0.394 | 0.279 | 0.345 | 0.372 | 0.356 | 1.18 | 1.35 | 0.832
4 | NCI-H2023 | 0.893 | 1.11 | 0.885 | 0.766 | 0.389 | 0.376 | 0.276 | 0.443 | 0.251 | 0.742 | 0.47 | 0.496 | 0.598 | 0.518 | 1.07 | 0.888 | 0.845
5 | NCI-H1944 | 0.895 | 1.1 | 0.955 | 1.07 | 0.336 | 0.339 | 0.34 | 0.333 | 0.333 | 0.209 | 0.212 | 0.206 | 0.223 | 0.217 | 1.03 | 1 | 1.04
6 | HCC-78 | 0.587 | 0.892 | 0.786 | 0.851 | 0.483 | 0.518 | 0.504 | 0.548 | 0.403 | 0.36 | 0.345 | 0.444 | 0.406 | 0.384 | 0.792 | 0.67 | 0.622
7 | PC-3 [JPC-3] | 1.01 | 1.06 | 1.06 | 1 | 0.54 | 0.563 | 0.567 | 0.495 | 0.569 | 1.02 | 0.799 | 0.953 | 0.991 | 0.819 | 0.8 | 0.724 | 0.7
8 | NCI-H2126 | 1.2 | 1.1 | 1.01 | 1.02 | 0.326 | 0.363 | 0.369 | 0.346 | 0.373 | 0.663 | 0.622 | 0.58 | 0.523 | 0.542 | 0.892 | 0.824 | 0.877
9 | LK-2 | 1.18 | 1.06 | 0.894 | 0.98 | 0.862 | 0.574 | 0.615 | 0.908 | 0.651 | 0.333 |  | 0.489 | 0.258 | 0.283 | 0.912 | 0.778 | 0.941
